# Results: PMC12697872, “Rethinking the AI Paradigm for Solubility Prediction of Drug‑Like Compounds with Dual‐Perspective Modeling and Experimental Validation” (Advanced Science, 2025)
# Values joined by “and” are separate entries in the source; they are usually repeats but may differ in a detail not shown here. Equal values may be shown once. Read-outs that look alike come from different tables or passages of the source.
# What was measured:
# [1] = cited from earlier work; for LogS(mol/L): SC2-2 dataset (Second Solubility Challenge, loose subset), aqueous solubility; for Class: SC2-2 dataset, aqueous solubility class 0-6
# [2] = Saturation shake-flask aqueous solubility, gravimetric determination; settings: for Experimental Class: European Pharmacopoeia solubility class from the experimental solubility; for solubility at 48 h / solubility thermodynamic at 48 h: thermodynamic from solid; for solubility at 48 h: Experimental Log S; for solubility thermodynamic at 48 h: water (saturated aqueous solution)
# Protocol: Excess solid drug was added to a vial to prepare supersaturated aqueous solutions. The vial was placed in a constant temperature mixer (Titan Technology, SD2‐100) at 25 °C and shaken for 48 h at a speed of 500 rpm. […] After equilibration, the solution was centrifugated at room temperature at 8000 rpm, and the supernatant was collected. The concentration of the supernatant was determined using the gravimetric method. A measured volume of the supernatant (e.g. 1 mL) was transferred to a pre‐weighted empty vial, dried in a vacuum oven at 70 °C, and re‐weighed. The difference between the initial and final weights represents the drug content in the saturated solution. Each compound was tested in triplicate to ensure accuracy.
# [3] = cited from earlier work; for LogS(mol/L): SC2-1 dataset (Second Solubility Challenge, tight subset), aqueous solubility; for Class: SC2-1 dataset, aqueous solubility class 0-6
# [4] = water, 25 °C, shaken 48 h, triplicate, Log S = base-10 logarithm of moles per liter
# [5] = water, 25 °C, averaged over triplicate
# [6] = water, 25 °C, single replicate of triplicate
structure (smiles),measurement,setting,value
CCC(C)n1ncn(-c2ccc(N3CCN(c4ccc(OC[C@H]5CO[C@](Cn6cncn6)(c6ccc(Cl)cc6Cl)O5)cc4)CC3)cc2)c1=O (stereo partly shown),LogS(mol/L),[1],-8.98 mol/L
same,Class,[1],6 (Practically insoluble or insoluble (6))
CCCc1nc2c(C)cc(-c3nc4ccccc4n3C)cc2n1Cc1ccc(-c2ccccc2C(=O)O)cc1,LogS(mol/L),[1],-6.73 mol/L
same,Class,[1],6 (Practically insoluble or insoluble (6))
CC(C)C[C@H]1C(=O)N2CCC[C@H]2[C@]2(O)O[C@](NC(=O)[C@@H]3C=C4c5cccc6[nH]c(Br)c(c56)C[C@H]4N(C)C3)(C(C)C)C(=O)N12,LogS(mol/L),[1],-5.5 mol/L
same,Class,[1],6 (Practically insoluble or insoluble (6))
CC#C[C@]1(O)CC[C@H]2[C@@H]3CCC4=CC(=O)CCC4=C3[C@@H](c3ccc(N(C)C)cc3)C[C@@]21C,LogS(mol/L),[1],-5.22 mol/L
same,Class,[1],6 (Practically insoluble or insoluble (6))
CC(C)N=c1cc2n(-c3ccc(Cl)cc3)c3ccccc3nc-2cc1Nc1ccc(Cl)cc1,LogS(mol/L),[1],-9.05 mol/L
same,Class,[1],6 (Practically insoluble or insoluble (6))
CC[C@]1(c2ccccc2)OC[C@H]([C@@H]2CCCCN2)O1,LogS(mol/L),[1],-1.96 mol/L
same,Class,[1],4 (Slightly soluble (4))
COC1C=COC2(C)Oc3c(C)c(O)c4c(c3C2=O)C2=NC3(CCN(CC(C)C)CC3)NC2=C(NC(=O)C(C)=CC=CC(C)C(O)C(C)C(O)C(C)C(OC(C)=O)C1C)C4=O (stereo not shown),LogS(mol/L),[1],-4.09 mol/L
same,Class,[1],6 (Practically insoluble or insoluble (6))
CO[C@]12CC[C@@]3(C[C@@H]1[C@@](C)(O)C(C)(C)C)[C@H]1Cc4ccc(O)c5c4[C@@]3(CCN1CC1CC1)[C@H]2O5,LogS(mol/L),[1],-6.07 mol/L
same,Class,[1],6 (Practically insoluble or insoluble (6))
COc1cc(/C=C/C(=O)CC(=O)/C=C/c2ccc(O)c(OC)c2)ccc1O,LogS(mol/L),[1],-5.36 mol/L
same,Class,[1],6 (Practically insoluble or insoluble (6))
COc1ccc2[nH]c([S+]([O-])Cc3ncc(C)c(OC)c3C)nc2c1 (stereo not shown),LogS(mol/L),[1],-3.7 mol/L
same,Class,[1],6 (Practically insoluble or insoluble (6))
Clc1ccc(COC(Cn2ccnc2)c2ccc(Cl)cc2Cl)c(Cl)c1 (stereo not shown),LogS(mol/L),[1],-5.82 mol/L
same,Class,[1],6 (Practically insoluble or insoluble (6))
O=C1[C@H](CC[C@H](O)c2ccc(F)cc2)[C@@H](c2ccc(O)cc2)N1c1ccc(F)cc1,LogS(mol/L),[1],-4.94 mol/L
same,Class,[1],6 (Practically insoluble or insoluble (6))
O=C(c1ccc(OCCN2CCCCC2)cc1)c1c(-c2ccc(O)cc2)sc2cc(O)ccc12,Class,[1],6 (Practically insoluble or insoluble (6))
N[C@@H](Cc1ccc(I)cc1)C(=O)O [4-Iodo-L-phenylalanine],Experimental Log S,[2]; averaged over triplicate,-2.7425
same,Experimental S,[2]; averaged over triplicate,0.5633
same,Experimental Log S,[2]; single replicate of triplicate,-2.6716 and -2.9727 and -2.5832
same,Experimental S,[2]; single replicate of triplicate,0.6200 and 0.3100 and 0.7600
Cc1cc(=O)oc2cc(O[C@@H]3O[C@H](CO)[C@@H](O)[C@H](O)[C@H]3O)ccc12 [4-methylumbelliferyl β-D-glucoside],Experimental Log S,[2]; averaged over triplicate,-1.8858
same,Experimental S,[2]; averaged over triplicate,4.4033
same,Experimental Log S,[2]; single replicate of triplicate,-1.8647 and -1.9030 and -1.8898
same,Experimental S,[2]; single replicate of triplicate,4.6200 and 4.2300 and 4.3600
N[C@@H](Cc1ccc(I)cc1)C(=O)O [4‐Iodo‐L‐phenylalanine],Experimental Class,[2],5 (Very slightly soluble (5))
same,solubility at 48 h,[2]; [4],1.81 mM
Cc1cc(=O)oc2cc(O[C@@H]3O[C@H](CO)[C@@H](O)[C@H](O)[C@H]3O)ccc12 [4‐methylumbelliferyl β‐D‐glucoside],Experimental Class,[2],4 (Slightly soluble (4))
same,Experimental Log S,[2]; [4],−1.886 ± 0.016
Nc1nc2c(c(=O)[nH]1)CC=N2 [7-Deazaguanine],Experimental Log S,[2]; single replicate of triplicate,-1.8036 and -1.6879
same,Experimental S,[2]; single replicate of triplicate,2.1200 and 2.3600 and 3.0800
same,solubility thermodynamic at 48 h,"[2]; 25 °C, water",2520 µg/mL
same,solubility at 48 h,[2]; [5],16.6 mM
same,solubility at 48 h,[2]; [6],14.1 mM
Nc1nc2c(c(=O)[nH]1)CC=N2 [7‐Deazaguanine],Experimental Class,[2],4 (Slightly soluble (4))
same,solubility at 48 h,[2]; [4],16.6 mM
CC(C)NCC(O)COc1ccc(COCCOC(C)C)cc1 (stereo not shown) [CC(C)NCC(O)COc1ccc(COCCOC(C)C)cc1],LogS(mol/L),[1],-2.09 mol/L
same,Class,[1],4 (Slightly soluble (4))
CCCCC1C(=O)N(c2ccccc2)N(c2ccc(O)cc2)C1=O (stereo not shown) [CCCCC1C(=O)N(c2ccccc2)N(c2ccc(O)cc2)C1=O],LogS(mol/L),[3],-3.94 mol/L
same,Class,[3],6 (Practically insoluble or insoluble (6))
CCCCNc1ccc(C(=O)OCCN(C)C)cc1 [CCCCNc1ccc(C(=O)OCCN(C)C)cc1],LogS(mol/L),[3],-3.11 mol/L
same,Class,[3],5 (Very slightly soluble (5))
CCCN(CCC)S(=O)(=O)c1ccc(C(=O)O)cc1 [CCCN(CCC)S(=O)(=O)c1ccc(C(=O)O)cc1],LogS(mol/L),[3],-4.83 mol/L
same,Class,[3],6 (Practically insoluble or insoluble (6))
CCCNC(=O)NS(=O)(=O)c1ccc(Cl)cc1 [CCCNC(=O)NS(=O)(=O)c1ccc(Cl)cc1],LogS(mol/L),[3],-3.17 mol/L
same,Class,[3],5 (Very slightly soluble (5))
CCOc1ccc2nc(S(N)(=O)=O)sc2c1 [CCOc1ccc2nc(S(N)(=O)=O)sc2c1],LogS(mol/L),[3],-3.76 mol/L
same,Class,[3],6 (Practically insoluble or insoluble (6))
CN(C)CCCN1c2ccccc2Sc2ccccc21 [CN(C)CCCN1c2ccccc2Sc2ccccc21],LogS(mol/L),[3],-4.45 mol/L
same,Class,[3],6 (Practically insoluble or insoluble (6))
COC(=O)Nc1nc2ccccc2[nH]1 [COC(=O)Nc1nc2ccccc2[nH]1],LogS(mol/L),[3],-4.56 mol/L
same,Class,[3],6 (Practically insoluble or insoluble (6))
COc1ccc2cc(CCC(C)=O)ccc2c1 [COc1ccc2cc(CCC(C)=O)ccc2c1],LogS(mol/L),[3],-4.4 mol/L
same,Class,[3],6 (Practically insoluble or insoluble (6))
COc1ccc(Cc2nccc3cc(OC)c(OC)cc23)cc1OC [COc1ccc(Cc2nccc3cc(OC)c(OC)cc23)cc1OC],LogS(mol/L),[3],-4.33 mol/L
same,Class,[3],6 (Practically insoluble or insoluble (6))
Cc1ccnc2c1NC(=O)c1cccnc1N2C1CC1 [Cc1ccnc2c1NC(=O)c1cccnc1N2C1CC1],Class,[3],5 (Very slightly soluble (5))
OC[C@H]1O[C@@H](n2cnc3c(O)ncnc32)C[C@@H]1O [Deoxyinosine],Experimental Class,[2],3 (Sparingly soluble (3))
same,Experimental Log S,[2]; single replicate of triplicate,-1.3814 and -1.3992
same,Experimental S,[2]; single replicate of triplicate,10.1800 and 10.4800 and 10.0600
same,solubility thermodynamic at 48 h,"[2]; 25 °C, water",10200 µg/mL
same,solubility at 48 h,[2]; [5],40.6 mM
same,solubility at 48 h,[2]; [4],40.6 mM
same,solubility at 48 h,[2]; [6],40.4 mM
"OC[C@@H](O)CN1CCN(c2ccccc2)CC1 [Levodropropizine, reference compound]",Experimental Class,[2],2 (Soluble (2))
same,Experimental Log S,[2]; single replicate of triplicate,-0.8427
same,Experimental S,[2]; single replicate of triplicate,34.3300 and 33.9500
same,solubility thermodynamic at 48 h,"[2]; 25 °C, water",34200 µg/mL
same,solubility at 48 h,[2]; [5],145 mM
same,solubility at 48 h,[2]; [4],145 mM
same,solubility at 48 h,[2]; [6],145 mM
NCC(CC(=O)O)c1ccc(Cl)cc1 (stereo not shown) [NCC(CC(=O)O)c1ccc(Cl)cc1],LogS(mol/L),[3],-1.78 mol/L
same,Class,[3],4 (Slightly soluble (4))
N[C@@H](Cc1ccc(O)c(O)c1)C(=O)O [N[C@@H](Cc1ccc(O)c(O)c1)C(=O)O],LogS(mol/L),[3],-1.76 mol/L
same,Class,[3],4 (Slightly soluble (4))
Nc1ccc(N=Nc2ccccc2)c(N)n1 [Nc1ccc(N=Nc2ccccc2)c(N)n1],LogS(mol/L),[3],-4.02 mol/L
same,Class,[3],6 (Practically insoluble or insoluble (6))
Nc1ccc(S(=O)(=O)Nc2nccs2)cc1 [Nc1ccc(S(=O)(=O)Nc2nccs2)cc1],LogS(mol/L),[3],-2.62 mol/L
same,Class,[3],5 (Very slightly soluble (5))
Nc1nc(N)c2nc(-c3ccccc3)c(N)nc2n1 [Nc1nc(N)c2nc(-c3ccccc3)c(N)nc2n1],LogS(mol/L),[3],-4.11 mol/L
same,Class,[3],6 (Practically insoluble or insoluble (6))
O=C1CCc2cc(OCCCCc3nnnn3C3CCCCC3)ccc2N1 [O=C1CCc2cc(OCCCCc3nnnn3C3CCCCC3)ccc2N1],LogS(mol/L),[3],-4.93 mol/L
same,Class,[3],6 (Practically insoluble or insoluble (6))
O=C1CN=C(c2ccccn2)c2cc(Br)ccc2N1 [O=C1CN=C(c2ccccn2)c2cc(Br)ccc2N1],LogS(mol/L),[3],-3.39 mol/L
same,Class,[3],5 (Very slightly soluble (5))
O=C1Nc2ccc(Cl)cc2C(c2ccccc2)=NC1O (stereo not shown) [O=C1Nc2ccc(Cl)cc2C(c2ccccc2)=NC1O],Class,[3],6 (Practically insoluble or insoluble (6))
O=c1[nH]c(=O)c2[nH]cnc2[nH]1 [O=c1[nH]c(=O)c2[nH]cnc2[nH]1],Class,[3],6 (Practically insoluble or insoluble (6))
Oc1ccc(/C=C/c2cc(O)cc(O)c2)cc1 [Oc1ccc(/C=C/c2cc(O)cc(O)c2)cc1],Class,[3],6 (Practically insoluble or insoluble (6))
"CC(=O)SCC(Cc1ccccc1)C(=O)NCC(=O)OCc1ccccc1 (stereo not shown) [Racecadotril, reference compound]",Experimental Class,[2],6 (Practically insoluble or insoluble (6))
same,Experimental Log S,[2]; single replicate of triplicate,-4.1710 and -3.8226 and -3.9232
same,Experimental S,[2]; single replicate of triplicate,0.0260 and 0.0580 and 0.0460
same,solubility thermodynamic at 48 h,"[2]; 25 °C, water",43.3 µg/mL
same,solubility at 48 h,[2]; [5],0.107 mM
same,solubility at 48 h,[2]; [4],0.107 mM
CC(=C(CCO)SSC(CCO)=C(C)N(C=O)Cc1cnc(C)nc1N)N(C=O)Cc1cnc(C)nc1N [Thiamine disulfide],Experimental Class,[2],4 (Slightly soluble (4))
same,Experimental Log S,[2]; single replicate of triplicate,-2.3811 and -2.3222
same,Experimental S,[2]; single replicate of triplicate,1.9700 and 2.3400 and 2.6800
same,solubility thermodynamic at 48 h,"[2]; 25 °C, water",2330 µg/mL
same,solubility at 48 h,[2]; [5],4.11 mM
same,solubility at 48 h,[2]; [4],4.11 mM
same,solubility at 48 h,[2]; [6],3.5 mM
c1ccc2c(c1)[nH]c1ccccc12 [c1ccc2c(c1)[nH]c1ccccc12],LogS(mol/L),[3],-5.19 mol/L
same,Class,[3],6 (Practically insoluble or insoluble (6))
c1ccc(Nc2ccccc2)cc1 [c1ccc(Nc2ccccc2)cc1],Class,[3],6 (Practically insoluble or insoluble (6))
